The structures appear in SMILES notation.

The test system of assay [1] is BJ human skin fibroblasts. The assay can be described thus: MTS cytotoxicity assay, 72 h, BJ fibroblasts. In kind it is cell-based. As to conditions: normal fibroblasts; for IC50: Homo sapiens, Skin fibroblast. The procedure: (§1) Based on the preliminary results and tests of a larger library of known triterpenoids, a small set of 2-substituted lupane and 18α-oleanane derivatives was designed and synthesized. As the first step, the cytotoxic activity of the synthesized derivatives was assessed using an MTS assay following 72 h of treatment (Table 1). Selected cell lines A549 (lung adenocarcinoma) and DU-145 (prostate cancer) are both dependent on Hh signaling. In addition, K562 (chronic myelogenous leukemia) was included as a cell line sensitive to Hh inhibitors[32] and a type of hematological malignancy with active Hh signaling.[33] MRC-5 lung fibroblasts and BJ human skin fibroblasts cell lines were used to evaluate the toxicity against nontumor cells. Compounds were also tested using the standard panel of other cancer cell lines, as described in our earlier work (Table 1).[27]
(§2) The human prostate tumor-derived cell line DU145 was obtained from ATCC (American Type Culture Collection) and cultured in RPMI 1640 (Roswell Park Memorial Institute) medium supplemented with 10% (v/v) fetal bovine serum (FBS). Human prostate tumor-derived LNCaP cells were obtained from ATCC and cultured in RPMI 1640 medium supplemented with 10% FBS. The human nonsmall cell lung carcinoma (NSCLC)-derived cell line HOP-62 was obtained from the DSMZ (German Collection of Microorganisms and Cell Cultures) and cultured in RPMI 1640 medium supplemented with 10% FBS. The human nonsmall cell lung carcinoma-derived cell line NCI-H322 was obtained from ECACC (European Collection of Authenticated Cell Cultures) and cultured in RPMI 1640 medium supplemented with 10% FBS. The human nonsmall cell lung carcinoma-derived cell line NCI-H522 was obtained from ATCC and cultured in RPMI 1640 medium supplemented with 10% FBS. The human lung tumor-derived cell line A549 was obtained from ATCC and cultured in Dulbecco’s Modified Eagle’s Medium (DMEM) supplemented with 10% FBS. The human medulloblastoma-derived cell line DAOY was obtained from ATCC and cultured in Eagle’s Minimum Essential Medium (EMEM) supplemented with 10% FBS. The human glioblastoma-derived cell line T98G was obtained from ATCC and cultured in EMEM medium supplemented with 10% FBS, 1 mmol/L sodium pyruvate, and 1 mmol/L nonessential amino acid mixture. All the above-mentioned cell lines were cultured at 37 °C in an atmosphere of 5% CO2 with 95% humidity. The cytotoxicity MTS assays were performed using MTS (3-(4,5-dimethylthiazol-2-yl)-5-(3-carboxymethoxyphenyl)-2-(4-sulfophenyl)-2H-tetrazolium) tetrazolium salt. Briefly, cells were seeded in a 384-well transparent plate in a volume of 25 μL and a concentration of 15,000 cells/mL (DU145, LNCaP, HOP-62, A549, DAOY, T98G) or 30,000 cells/mL (NCI-H322, NCI-H522). The next day, cells were exposed to compounds in a concentration range of 50–0.0975 μmol/L (dilution factor 2) and cultured in the presence of the compounds for 72 h. After 72 h, 5 μL of MTS/phenazine methosulfate solution was pipetted into each well and incubation continued for 1–4 h. Finally, the absorbance at 490 nm was measured using an EnVision multifunctional modular reader (PerkinElmer). The IC50 value was determined using Dotmatics software.
(Formazan colour is commonly taken as a measure of viable cells.)

Assay [2] relates to A549 (lung adenocarcinoma). Description: MTS cytotoxicity assay, 72 h, A549. In kind it is cell-based. Particulars: Homo sapiens, A549, 72 h. The procedure:
as §1, §2

In another assay the test system is U2OS. The assay can be described thus: MTS cytotoxicity assay, 72 h, U2OS. In kind it is cell-based. Particulars: Homo sapiens. The procedure: as §1, §2
Another assay relates to HCT 116. The assay can be described thus: MTS cytotoxicity assay, 72 h, HCT 116. In kind it is cell-based. As to conditions: Homo sapiens, HCT-116, 72 h. The procedure: as §1, §2
In a further assay the test system is CEM-DNR. Description: MTS cytotoxicity assay, 72 h, CEM-DNR. Particulars: Homo sapiens. In kind it is cell-based. The procedure:
as §1, with “1).[27] […]” for “1).[27]”

A further assay relates to CCRF-CEM. The assay can be described thus: MTS cytotoxicity assay, 72 h, CCRF-CEM. Particulars: for IC50: Homo sapiens, CCRF-CEM, 72 h, MTS. In kind it is cell-based. As to the method:
as §1, §2

In assay [3] the test system is K562 (chronic myelogenous leukemia). The assay can be described thus: MTS cytotoxicity assay, 72 h, K562. In kind it is cell-based. Particulars: Homo sapiens. The procedure: as §1, §2
The test system of the next assay is DU-145 (prostate cancer). The assay can be described thus: MTS cytotoxicity assay, 72 h, DU-145. In kind it is cell-based, human. As to conditions: Homo sapiens, DU-145, 72 h. The procedure: as §1, §2
Another assay deals with MRC-5 lung fibroblasts. Description: MTS cytotoxicity assay, 72 h, MRC-5 fibroblasts. In kind it is cell-based, human. As to conditions: normal fibroblasts; for IC50: Homo sapiens, MRC5, 72 h. As to the method:
as §1, §2

A further assay has as its system HCT116 p53–/–. Description: MTS cytotoxicity assay, 72 h, HCT116 p53–/–. In kind it is cell-based. Particulars: Homo sapiens, HCT-116, 72 h. As to the method:
as §1, §2

Another assay concerns K562-TAX. Description: MTS cytotoxicity assay, 72 h, K562-TAX. In kind it is cell-based. The procedure:
as §1, §2

The mark [4] stands for this setting: CCRF-CEM vs average of BJ and MRC-5, full Table S1.

A word on the IC50: it is the concentration at which inhibition is half-maximal. A lower IC50 goes with higher potency. Turning to `C=C(C)[C@@H]1CC[C@]2(C(=O)O)CC[C@]3(C)C(CCC4[C@@]5(C)C=C(c6ccncc6)C(=O)C(C)(C)C5CC[C@]43C)C12` (some centres unmarked) [Compound 11h, 2-(Pyridin-4-yl)-3-oxolupa-1,20(29)-dien-28-oic acid], the IC50 is more than 50 µM in assay [1] (Table 1); 21 µM in [2] (Table 1); 21.3 µM in assay [2] (full Table S1); 28 µM with U2OS (Table 1); 28.4 µM in the assay on U2OS (full Table S1); 25 µM with HCT 116 (Table 1). For the same molecule, the IC50 in the assay on HCT 116 (full Table S1) was 25.1 µM; in the assay on CEM-DNR (Table 1) it was 17 µM; in the assay with CCRF-CEM (Table 1), 5.2 µM; in assay [3] (Table 1), more than 50 µM; in the assay on DU-145 (prostate cancer) (Table 1) it was 11 µM; with DU-145 (prostate cancer) (full Table S1), 10.8 µM. Also, the IC50 is more than 50 µM with MRC-5 lung fibroblasts (Table 1); 31 µM in the assay with HCT116 p53–/– (Table 1); 30.6 µM in the assay with HCT116 p53–/– (full Table S1); 11 µM with K562-TAX (Table 1); 10.8 µM in the assay with K562-TAX (full Table S1). Besides, in assay [1] (Table 1), the “IC50 BJ” value is “below the detection limit”. Besides, the “SI (selectivity index)” value with CCRF-CEM (IC50 of CCRF-CEM line vs average of both fibroblasts (BJ and MRC-5), Table 1) was more than 9.5. Further, the “IC50 MRC-5” value in the assay on MRC-5 lung fibroblasts (Table 1) was “below the detection limit”.
Take `CC1(C)C(=O)C(c2ccc3c(c2)OCCO3)=C[C@@]2(C)C1CC[C@]1(C)C2CCC2C3[C@H]4OC[C@@]3(CCC4(C)C)CC[C@]21C` (stereo partly drawn) [Compound 4j, 2-(1,4-Benzodioxan-6-yl)-19β,28-epoxyolean-1-en-3-one]: the IC50 (in [1] (full Table S1); in assay [2] (full Table S1); with U2OS (full Table S1); in the assay on HCT 116 (full Table S1); with CEM-DNR (full Table S1); with CCRF-CEM (full Table S1)) was more than 50 µM each time. The IC50 (in assay [3] (full Table S1); in the assay with DU-145 (prostate cancer) (full Table S1); in the assay with MRC-5 lung fibroblasts (full Table S1); in the assay on HCT116 p53–/– (full Table S1); in the assay with K562-TAX (full Table S1)) was more than 50 µM throughout. Besides, the “SI (selectivity index)” value with CCRF-CEM (setting [4]) is reported as more than 1.0.
On to `C=C(C)[C@@H]1CC[C@]2(C(=O)OCc3ccccc3)CC[C@]3(C)C(CCC4[C@@]5(C)C=C(c6ccc7[nH]ccc7c6)C(=O)C(C)(C)C5CC[C@]43C)C12` (some centres unmarked) [Compound 10m, Benzyl 2-(Indol-5-yl)-3-oxolupa-1,20(29)-dien-28-oate], for which the IC50 (in assay [1] (full Table S1); in assay [2] (full Table S1); in the assay on U2OS (full Table S1); in the assay with HCT 116 (full Table S1); in the assay with CEM-DNR (full Table S1); with CCRF-CEM (full Table S1)) was more than 50 µM in each case. For the same molecule, the IC50 (in assay [3] (full Table S1); in the assay on DU-145 (prostate cancer) (full Table S1); in the assay with MRC-5 lung fibroblasts (full Table S1); in the assay on HCT116 p53–/– (full Table S1); in the assay with K562-TAX (full Table S1)) was more than 50 µM throughout. Further, the “SI (selectivity index)” value with CCRF-CEM (setting [4]) is on record as more than 1.0.
Regarding `C=C(C)[C@@H]1CC[C@]2(C(=O)OCc3ccccc3)CC[C@]3(C)C(CCC4[C@@]5(C)C=C(c6cccs6)C(=O)C(C)(C)C5CC[C@]43C)C12` (some centres unmarked) [Compound 10c, Benzyl 2-(2-Thiophenyl)-3-oxolupa-1,20(29)-dien-28-oate], the 50% inhibitory concentration (IC50) (in [1] (full Table S1); in assay [2] (full Table S1); in the assay with U2OS (full Table S1); in the assay on HCT 116 (full Table S1); in the assay with CEM-DNR (full Table S1); with CCRF-CEM (full Table S1)) was more than 50 µM each time. Moreover, the IC50 (in assay [3] (full Table S1); in the assay with DU-145 (prostate cancer) (full Table S1); in the assay on MRC-5 lung fibroblasts (full Table S1); with HCT116 p53–/– (full Table S1); with K562-TAX (full Table S1)) was more than 50 µM throughout. Moreover, the “SI (selectivity index)” value with CCRF-CEM (setting [4]) is more than 1.0.
For the molecule `C=C(C)[C@@H]1CC[C@]2(C(=O)OCc3ccccc3)CC[C@]3(C)C(CCC4[C@@]5(C)C=C(c6ccsc6)C(=O)C(C)(C)C5CC[C@]43C)C12` (some centres unmarked) [Compound 10d, Benzyl 2-(3-Thiophenyl)-3-oxolupa-1,20(29)-dien-28-oate], the IC50 (in assay [1] (full Table S1); in assay [2] (full Table S1); in the assay with U2OS (full Table S1); with HCT 116 (full Table S1); in the assay on CEM-DNR (full Table S1); in the assay with CCRF-CEM (full Table S1)) was more than 50 µM each time. Further, the IC50 (in assay [3] (full Table S1); in the assay with DU-145 (prostate cancer) (full Table S1); in the assay on MRC-5 lung fibroblasts (full Table S1); with HCT116 p53–/– (full Table S1); in the assay on K562-TAX (full Table S1)) was more than 50 µM each time. For the same molecule, in the assay with CCRF-CEM (setting [4]), the “SI (selectivity index)” value was more than 1.0.
As for `C=C(C)[C@@H]1CC[C@]2(C(=O)OCc3ccccc3)CC[C@]3(C)C(CCC4[C@@]5(C)C=C(c6ccc(Cl)s6)C(=O)C(C)(C)C5CC[C@]43C)C12` (some centres unmarked) [Compound 10e], the 50% inhibitory concentration (IC50) (in assay [1] (full Table S1); in [2] (full Table S1); in the assay on U2OS (full Table S1); with HCT 116 (full Table S1); in the assay on CEM-DNR (full Table S1); in the assay with CCRF-CEM (full Table S1)) was more than 50 µM throughout. Also, the 50% inhibitory concentration (IC50) (in assay [3] (full Table S1); with DU-145 (prostate cancer) (full Table S1); with MRC-5 lung fibroblasts (full Table S1); in the assay on HCT116 p53–/– (full Table S1); with K562-TAX (full Table S1)) was more than 50 µM each time. Further, in the assay with CCRF-CEM (setting [4]), the “SI (selectivity index)” value is more than 1.0.
`CC1(C)C(=O)C(c2ccsc2)=C[C@@]2(C)C1CC[C@]1(C)C2CCC2C3[C@H]4OC[C@@]3(CCC4(C)C)CC[C@]21C` (stereo partly drawn) [Compound 4d, 2-(Thiophene-3-yl)-19β,28-epoxyolean-1-en-3-one]: the IC50 (in [1] (full Table S1); in assay [2] (full Table S1); in the assay with U2OS (full Table S1); with HCT 116 (full Table S1); with CEM-DNR (full Table S1); in the assay with CCRF-CEM (full Table S1)) was more than 50 µM in each case. The IC50 (in assay [3] (full Table S1); in the assay with DU-145 (prostate cancer) (full Table S1); in the assay on MRC-5 lung fibroblasts (full Table S1); with HCT116 p53–/– (full Table S1); in the assay with K562-TAX (full Table S1)) was more than 50 µM throughout. Besides, the “SI (selectivity index)” value in the assay with CCRF-CEM (setting [4]) is more than 1.0.
Take `C=C(C)[C@@H]1CC[C@]2(C(=O)OCc3ccccc3)CC[C@]3(C)C(CCC4[C@@]5(C)C=C(c6ccncc6)C(=O)C(C)(C)C5CC[C@]43C)C12` (some centres unmarked) [Compound 10h, Benzyl 2-(4-Pyridinyl)-3-oxolupa-1,20(29)-dien-28-oate]: the IC50 (in [1] (full Table S1); in [2] (full Table S1); with U2OS (full Table S1); with HCT 116 (full Table S1); with CEM-DNR (full Table S1); in the assay with CCRF-CEM (full Table S1)) was more than 50 µM throughout. The IC50 (in assay [3] (full Table S1); with DU-145 (prostate cancer) (full Table S1); in the assay on MRC-5 lung fibroblasts (full Table S1); in the assay on HCT116 p53–/– (full Table S1); with K562-TAX (full Table S1)) was more than 50 µM in each case. Also, the “SI (selectivity index)” value in the assay on CCRF-CEM (setting [4]) was more than 1.0.

(Values after article PMC11923649, “Novel C-2 Aromatic Heterocycle-Substituted Triterpenoids Inhibit Hedgehog Signaling in GLI1 Overexpression Cancer Cells” (ACS Omega, 2025).)
